Series [1] in a line: Clinical testing of creams, indication skin cancer. Type of series: in vivo, human. As to conditions: one person, skin cancer in the face. The method, then:
A person with skin cancer in the face (one lesion above the nose) was treated with photodynamic therapy (5-ALA methyl ester, available from Photocure ASA, Oslo, Norway). The outcome of the treatment was very good. After about one year they observed a new lesion in the same area.

A further series concerns Staphylococcus aureus. Put plainly: Antibacterial effect on agar gels. Type of series: cell-based. The note with it: same amount (10 mg). The method, then:
The antibacterial effects of azelaic acid and the azelaic acid derivatives of Examples 7, 12 and 13 on Staphylococcus aureus were tested on agar gels.

The conditions of series [2]: cited from earlier work.

Data on five compounds can be found in patent US7629383B2, “Double esters” (Drug Discovery Laboratory AS, priority 2001, dated 2009).

Where two headings read alike, the source gives them in different places.

Consider `COC(=O)CCC(=O)CN` [5-ALA methyl ester], for which the “outcome of photodynamic therapy” value in series [1] was “very good”. Regarding `CCOC(=O)OC(C)OC(=O)CCCCCCCC(=O)OC(C)OC(=O)OCC` (centres unmarked) [Example 7, bis-[1-[ethoxycarbonyloxy]-ethyl]nonanedioate], the “inhibiting zones on agar gel” value in the series on Staphylococcus aureus is reported as “large inhibiting zones”. The same measure, in the same setting: in the case of `CCCC(=O)OCOC(=O)CCCCCCCC(=O)OCOC(=O)CCC` [Example 12, bis-(butanoyloxymethyl)nonanedioate] it was “large inhibiting zones”. On the same count and under the same terms, the same measure for `CCCCCC(=O)OCOC(=O)CCCCCCCC(=O)OCOC(=O)CCCCC` [Example 13, bis-(hexanoyloxymethyl) nonanedioate]: “large inhibiting zones”.

`O=C(O)CCCCCCCC(=O)O` [azelaic acid, nonanedioic acid]: the dose absorbed entry in series [2] (administered orally) is listed as “about 60%”; in series [2] (administered topically), “about 3.6%”. In series [2] (within 12 hours), the “absorbed azelaic acid excreted into the urine” value is recorded as 60%. Further, the “inhibiting zones on agar gel” value in the series with Staphylococcus aureus is “no inhibiting effect”.
